Patent publication US10689377B2 (Mirati Therapeutics, Inc., priority 2017, dated 2020)

What follows are compounds tested against KRas G12C (Homo sapiens, UniProt P01116, G12C) (assay: Cellular inhibition of KRas G12C measured by Phospho-ERK in NCI-H358 cells). Conditions: pERK(Thr202/Tyr204) normalized with GAPDH, NCI-H358 cells, 3 hours; read-out: IC50.
Assay type: cell-based
Method in brief: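 Following 8-12 h attachment, NCI-H358 cells got serially diluted compound (0.5% DMSO) for 3 hours. Cells were then fixed, permeabilized with cold methanol, and stained for pERK(Thr202/Tyr204) and GAPDH. Ratios were converted to percent of DMSO control, with IC50 obtained by four-parameter regression.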

Sequence of KRas G12C (P01116 1-188 isoform P01116-2 G12C): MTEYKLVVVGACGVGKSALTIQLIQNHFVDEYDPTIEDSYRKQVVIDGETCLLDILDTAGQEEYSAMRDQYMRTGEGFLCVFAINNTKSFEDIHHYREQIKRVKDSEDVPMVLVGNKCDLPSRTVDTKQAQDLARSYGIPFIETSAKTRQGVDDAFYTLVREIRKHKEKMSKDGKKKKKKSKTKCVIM

SMILES	IC50 [µM]
C=CC(=O)N1CCN(c2nc(O[C@H](C)CN(C)C)nc3c2CCN(c2cc(O)cc(Cl)c2C(C)C)C3)CC1 [Example 76, (R)-1-(4-(7-(3-chloro-5-hydroxy-2-isopropylphenyl)-2-((1-(dimethylamino)propan-2-yl)oxy)-5,6,7,8-tetrahydropyrido[3,4-d]pyrimidin-4-yl)piperazin-1-yl)prop-2-en-1-one]	> 1
C=CC(=O)N1CCN(c2nc(OC(C)CCN3CCOCC3)nc3c2CCN(c2cc(O)cc4ccccc24)C3)CC1 (centres unmarked) [Example 93, 1-(4-(7-(3-hydroxynaphthalen-1-yl)-2-((4-morpholinobutan-2-yl)oxy)-5,6,7,8-tetrahydropyrido[3,4-d]pyrimidin-4-yl)piperazin-1-yl)prop-2-en-1-one]	> 1
C=CC(=O)N1CCN(c2nc(OC[C@H]3CCCCN3C)nc3c2CCN(c2cc(O)cc4ccccc24)C3)CC1 [Example 195, (R)-1-(4-(7-(3-hydroxynaphthalen-1-yl)-2-((1-methylpiperidin-2-yl)methoxy)-5,6,7,8-tetrahydropyrido[3,4-d]pyrimidin-4-yl)piperazin-1-yl)prop-2-en-1-one]	> 1
C=CC(=O)N1CCN(c2nc(O[C@H](C)CN(C)C)nc3c2CCN(c2cccc4ccccc24)C3)CC1CC#N (stereo partly drawn) [Example 151, 2-(1-acryloyl-4-(2-(((R)-1-(dimethylamino)propan-2-yl)oxy)-7-(naphthalen-1-yl)-5,6,7,8-tetrahydropyrido[3,4-d]pyrimidin-4-yl)piperazin-2-yl)acetonitrile]	> 1
C=CC(=O)N1CCN(c2nc(OCCN3CCCCC3)nc3c2CCN(c2c(C)ccc4[nH]ncc24)C3)CC1 [Example 164]	> 1
C[C@H](CN(C)C)Oc1nc2c(c(N3CCN(C(=O)/C=C/CN(C)C)CC3)n1)CCN(c1cc(O)cc3ccccc13)C2 [Example 122, (R,E)-4-(dimethylamino)-1-(4-(2-((1-(dimethylamino)propan-2-yl)oxy)-7-(3-hydroxynaphthalen-1-yl)-5,6,7,8-tetrahydropyrido[3,4-d]pyrimidin-4-yl)piperazin-1-yl)but-2-en-1-one bis-trifluoroacetate]	> 1
C=CC(=O)N1CCN(c2nc(NCCCN3CCOCC3)nc3c2CCN(c2cc(O)cc4ccccc24)C3)CC1 [Example 133, 1-[4-[7-(3-hydroxy-1-naphthyl)-2-(3-morpholinopropylamino)-6,8-dihydro-5H-pyrido[3,4-d]pyrimidin-4-yl]piperazin-1-yl]prop-2-en-1-one]	> 1
C=CC(=O)N1CCN(c2nc(OCCCN3CCOCC3)nc3c2CCN(c2c(C)ccc4[nH]ccc24)C3)CC1 [Example 209, 1-(4-(7-(5-methyl-1H-indol-4-yl)-2-(3-morpholinopropoxy)-5,6,7,8-tetrahydropyrido[3,4-d]pyrimidin-4-yl)piperazin-1-yl)prop-2-en-1-one]	> 1
C=CC(=O)N1CCN(c2nc(OCCN3CCCCC3)nc3c2CCN(c2cccc4ccccc24)C3)CC1CC#N (centres unmarked) [Example 303, 2-[4-[7-(1-naphthyl)-2-[2-(1-piperidyl)ethoxy]-6,8-dihydro-5H-pyrido[3,4-d]pyrimidin-4-yl]-1-prop-2-enoyl-piperazin-2-yl]acetonitrile]	0.0001 to 1
C=C(F)C(=O)N1CCN(c2nc(OC[C@@H]3CC(F)(F)CN3C)nc3c2CCN(c2c(C)c(C)cc4[nH]ncc24)C3)C[C@@H]1CC#N [Example 613, 2-((S)-4-(2-(((S)-4,4-difluoro-1-methylpyrrolidin-2-yl)methoxy)-7-(5,6-dimethyl-1H-indazol-4-yl)-5,6,7,8-tetrahydropyrido[3,4-d]pyrimidin-4-yl)-1-(2-fluoroacryloyl)piperazin-2-yl)acetonitrile]	0.0001 to 1
C=CC(=O)N1CCN(c2nc(OC[C@@H]3CCCN3C)nc3c2CCN(c2cccc4ccccc24)C3)CC1COC (stereo partly drawn) [Example 429, 1-(2-(methoxymethyl)-4-(2-(((S)-1-methylpyrrolidin-2-yl)methoxy)-7-(naphthalen-1-yl)-5,6,7,8-tetrahydropyrido[3,4-d]pyrimidin-4-yl)piperazin-1-yl)prop-2-en-1-one]	> 1
C=CC(=O)N1CCN(c2nc(OC[C@@H]3CCCN3C)nc3c2CCN(c2c(F)cccc2C(F)(F)F)C3)CC1CC#N (some centres unmarked) [Example 275]	0.0001 to 1
C=C(F)C(=O)N1CCN(c2nc(OC[C@@H]3C[C@@H](F)CN3C)nc3c2CCN(c2c(C)c(C)cc4[nH]ncc24)C3)C[C@@H]1CC#N [Example 606, 2-((S)-4-(7-(5,6-dimethyl-1H-indazol-4-yl)-2-(((2S,4R)-4-fluoro-1-methylpyrrolidin-2-yl)methoxy)-5,6,7,8-tetrahydropyrido[3,4-d]pyrimidin-4-yl)-1-(2-fluoroacryloyl)piperazin-2-yl)acetonitrile]	0.0001 to 1
C=CC(=O)N1CCN(c2nc(OC[C@@H]3CCCN3C)nc3c2CCN(c2c(C(F)(F)F)ccc4[nH]ncc24)C3)CC1 [Example 156, (S)-1-(4-(2-((1-methylpyrrolidin-2-yl)methoxy)-7-(5-(trifluoromethyl)-1H-indazol-4-yl)-5,6,7,8-tetrahydropyrido[3,4-d]pyrimidin-4-yl)piperazin-1-yl)prop-2-en-1-one]	0.0001 to 1
C=CC(=O)N1CCN(c2nc(OC[C@@H]3CCN(C)C3)nc3c2CCN(c2c(C(F)(F)F)ccc4[nH]ncc24)C3)CC1CC#N (stereo partly drawn) [Example 313, 2-[4-[2-[[(3R)-1-methylpyrrolidin-3-yl]methoxy]-7-[5-(trifluoromethyl)-1H-indazol-4-yl]-6,8-dihydro-5H-pyrido[3,4-d]pyrimidin-4-yl]-1-prop-2-enoyl-piperazin-2-yl]acetonitrile]	0.0001 to 1

Further lines, results first:

IC50 [µM]	SMILES
0.0001 to 1	C=C(Cl)C(=O)N1CCN(c2nc(OC[C@@H]3CCCN3C)nc3c2CCN(c2cccc(C)c2C)C3)C[C@@H]1CC#N [Example 473, 2-[(2S)-1-(2-chloroprop-2-enoyl)-4-[7-(2,3-dimethylphenyl)-2-[[(2S)-1-methylpyrrolidin-2-yl]methoxy]-6,8-dihydro-5H-pyrido[3,4-d]pyrimidin-4-yl]piperazin-2-yl]acetonitrile]
0.0001 to 1	C=CC(=O)N1CCN(c2nc(OC[C@@H]3CCCN3C)nc3c2CCN(c2cccc4ccncc24)C3)C[C@@H]1CC#N [Example 430]
0.0001 to 1	C=CC(=O)N1CCN(c2nc(OC[C@@H]3CN(C)CCO3)nc3c2CCN(c2cccc4ccccc24)C3)CC1CC#N (stereo partly drawn) [Example 271, 2-(1-acryloyl-4-(2-(((S)-4-methylmorpholin-2-yl)methoxy)-7-(naphthalen-1-yl)-5,6,7,8-tetrahydropyrido[3,4-d]pyrimidin-4-yl)piperazin-2-yl)acetonitrile]
0.0001 to 1	C=CC(=O)N1CCN(c2nc(OC[C@@H]3CCCN3C)nc3c2CCN(c2cncc(Cl)c2C)C3)C[C@@H]1CC#N [Example 387, 2-((S)-1-acryloyl-4-(7-(5-chloro-4-methylpyridin-3-yl)-2-(((S)-1-methylpyrrolidin-2-yl)methoxy)-5,6,7,8-tetrahydropyrido[3,4-d]pyrimidin-4-yl)piperazin-2-yl)acetonitrile]
0.0001 to 1	C=CC(=O)N1CCN(c2nc(OCCN(C)C)nc3c2CCN(c2cc(O)cc4ccccc24)C3)[C@@H](C)C1 [Example 116, (S)-1-(4-(2-(2-(dimethylamino)ethoxy)-7-(3-hydroxynaphthalen-1-yl)-5,6,7,8-tetrahydropyrido[3,4-d]pyrimidin-4-yl)-3-methylpiperazin-1-yl)prop-2-en-1-one]
0.0001 to 1	C=CC(=O)N1CCN(c2nc(OCCCN3C[C@@H]4C[C@H]3CO4)nc3c2CCN(c2cccc4ccccc24)C3)CC1CC#N (stereo partly drawn) [Example 154, 2-[4-[7-(1-naphthyl)-2-[3-[(1S,4S)-2-oxa-5-azabicyclo[2.2.1]heptan-5-yl]propoxy]-6,8-dihydro-5H-pyrido[3,4-d]pyrimidin-4-yl]-1-prop-2-enoyl-piperazin-2-yl] acetonitrile]
0.0001 to 1	C=CC(=O)N1CCN(c2nc(OC[C@@H]3CCCN3C)nc3c2CCN(c2cccc(F)c2C)C3)C[C@@H]1CC#N [Example 388, 2-((S)-1-acryloyl-4-(7-(3-fluoro-2-methylphenyl)-2-(((S)-1-methylpyrrolidin-2-yl)methoxy)-5,6,7,8-tetrahydropyrido[3,4-d]pyrimidin-4-yl)piperazin-2-yl)acetonitrile]
0.0001 to 1	C=C(F)C(=O)N1CCN(c2nc(OC[C@@H]3CCCN3C)nc3c2CCN(c2c(C)c(C)cc4[nH]ncc24)C3)C[C@@H]1CC#N [Example 521, 2-[(2S)-4-[7-(5,6-dimethyl-1H-indazol-4-yl)-2-[[(2S)-1-methylpyrrolidin-2-yl]methoxy]-6,8-dihydro-5H-pyrido[3,4-d]pyrimidin-4-yl]-1-(2-fluoroprop-2-enoyl)piperazin-2-yl]acetonitrile]
0.0001 to 1	C=CC(=O)N1CCN(c2nc(OC[C@@H]3CCCN3C)nc3c2CCN(c2cccc4cc(F)ccc24)C3)CC1CC#N (stereo partly drawn) [Example 290, 2-[4-[7-(6-fluoro-1-naphthyl)-2-[[(2S)-1-methylpyrrolidin-2-yl]methoxy]-6,8-dihydro-5H-pyrido[3,4-d]pyrimidin-4-yl]-1-prop-2-enoyl-piperazin-2-yl]acetonitrile]
0.0001 to 1	C=CC(=O)N1CCN(c2nc(OC[C@@H]3CCCN3C)nc3c2CCN(c2cccc(C)c2Cl)C3)C[C@@H]1CC#N [Example 425, 2-((S)-1-acryloyl-4-(7-(2-chloro-3-methylphenyl)-2-(((S)-1-methylpyrrolidin-2-yl)methoxy)-5,6,7,8-tetrahydropyrido[3,4-d]pyrimidin-4-yl)piperazin-2-yl)acetonitrile]
0.0001 to 1	C/C=C/C(=O)N1CCN(c2nc(OC[C@@H]3CCCN3C)nc3c2CCN(c2cccc4ccccc24)C3)CC1CC#N (stereo partly drawn) [Example 263, 2-[1-[(E)-but-2-enoyl]-4-[2-[[(2S)-1-methylpyrrolidin-2-yl]methoxy]-7-(1-naphthyl)-6,8-dihydro-5H-pyrido[3,4-d]pyrimidin-4-yl]piperazin-2-yl]acetonitrile]
